From BindingDB's records for doi:10.1021/jm00006a025 (Chungnam National University, 1995) come the findings set out here.

The target in this test is T1, DNA topoisomerase 1 (Homo sapiens, UniProt P11387).
T1 sequence (P11387 whole entry): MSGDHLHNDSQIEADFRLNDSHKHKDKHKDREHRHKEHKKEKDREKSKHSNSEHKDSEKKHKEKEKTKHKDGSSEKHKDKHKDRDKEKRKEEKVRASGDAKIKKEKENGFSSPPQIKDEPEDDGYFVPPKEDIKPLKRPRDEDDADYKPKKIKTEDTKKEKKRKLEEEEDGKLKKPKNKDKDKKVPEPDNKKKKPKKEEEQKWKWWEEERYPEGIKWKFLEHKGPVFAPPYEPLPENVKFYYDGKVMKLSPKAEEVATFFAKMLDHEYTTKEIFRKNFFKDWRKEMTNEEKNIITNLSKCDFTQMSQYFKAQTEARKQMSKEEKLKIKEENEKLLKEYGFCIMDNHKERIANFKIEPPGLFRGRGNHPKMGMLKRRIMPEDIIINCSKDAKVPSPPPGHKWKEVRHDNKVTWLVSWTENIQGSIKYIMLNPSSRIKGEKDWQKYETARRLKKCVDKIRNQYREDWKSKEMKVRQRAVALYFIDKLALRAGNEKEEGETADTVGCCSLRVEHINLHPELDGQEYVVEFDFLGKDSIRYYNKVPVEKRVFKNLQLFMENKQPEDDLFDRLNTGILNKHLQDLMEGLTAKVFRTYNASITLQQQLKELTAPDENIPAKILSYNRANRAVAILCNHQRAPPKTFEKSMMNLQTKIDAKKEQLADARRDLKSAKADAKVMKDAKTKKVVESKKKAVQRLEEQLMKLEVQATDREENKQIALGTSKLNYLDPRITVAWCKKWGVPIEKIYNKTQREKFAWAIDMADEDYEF
In words: Inhibitory activity against DNA topoisomerase-1 obtained from Hela cells.

With `CC(C)=CC=C(OC(=O)C(c1ccccc1)c1ccccc1)c1cc(O)c2c(O)ccc(O)c2c1O`, the 50% inhibitory concentration (IC50) is above 625 µM.

In the case of `CC(C)=CC=C(OC(=O)C=C(C)C=CC=C(C)/C=C/C1=C(C)CCCC1(C)C)c1cc(O)c2c(O)ccc(O)c2c1O` [(2Z,4E,6E,8E)-3,7-Dimethyl-9-(2,6,6-trimethyl-cyclohex-1-enyl)-nona-2,4,6,8-tetraenoic acid (R)-1-(5,8-dihydroxy-1,4-dioxo-1,4-dihydro-naphthalen-2-yl)-4-methyl-pent-3-enyl ester], the half-maximal inhibitory concentration (IC50) is above 625 µM.

On to `CCCCC/C=C/C/C=C/C/C=C/CCCCC(=O)OC(=CC=C(C)C)c1cc(O)c2c(O)ccc(O)c2c1O` [(6E,9E,12E)-Octadeca-6,9,12-trienoic acid (R)-1-(5,8-dihydroxy-1,4-dioxo-1,4-dihydro-naphthalen-2-yl)-4-methyl-pent-3-enyl ester], for which the IC50 is above 625 µM.

For `CCCCC/C=C/C/C=C/CCCCCCCC(=O)OC(=CC=C(C)C)c1cc(O)c2c(O)ccc(O)c2c1O` [(9E,12E)-Octadeca-9,12-dienoic acid (R)-1-(5,8-dihydroxy-1,4-dioxo-1,4-dihydro-naphthalen-2-yl)-4-methyl-pent-3-enyl ester], the half-inhibitory concentration (IC50) is above 625 µM.

Turning to `CCC/C=C/C(=O)OC(=CC=C(C)C)c1cc(O)c2c(O)ccc(O)c2c1O` [(E)-Hex-2-enoic acid (R)-1-(5,8-dihydroxy-1,4-dioxo-1,4-dihydro-naphthalen-2-yl)-4-methyl-pent-3-enyl ester], half-maximal inhibition (IC50) was put at 153 µM.

Consider `CC/C=C/CC(=O)OC(=CC=C(C)C)c1cc(O)c2c(O)ccc(O)c2c1O` [(E)-Hex-3-enoic acid (R)-1-(5,8-dihydroxy-1,4-dioxo-1,4-dihydro-naphthalen-2-yl)-4-methyl-pent-3-enyl ester], for which the IC50 was found to be 153 µM.

With `CCCCCCCC/C=C/CCCCCCCC(=O)OC(=CC=C(C)C)c1cc(O)c2c(O)ccc(O)c2c1O` [(E)-Octadec-9-enoic acid (R)-1-(5,8-dihydroxy-1,4-dioxo-1,4-dihydro-naphthalen-2-yl)-4-methyl-pent-3-enyl ester], the IC50 was above 625 µM.

As for `CC(C)=CC=C(OC(=O)c1ccccc1)c1cc(O)c2c(O)ccc(O)c2c1O` [(R)-1-(5,8-dihydroxy-1,4-dioxo-1,4-dihydronaphthalen-2-yl)-4-methylpent-3-enyl benzoate], the IC50 turned out to be 153 µM.

For the molecule `CCCCCCCCCC(=O)OC(=CC=C(C)C)c1cc(O)c2c(O)ccc(O)c2c1O` [Decanoic acid (R)-1-(5,8-dihydroxy-1,4-dioxo-1,4-dihydro-naphthalen-2-yl)-4-methyl-pent-3-enyl ester], the IC50 is above 625 µM.

Turning to `CCCCCCCCCCCC(=O)OC(=CC=C(C)C)c1cc(O)c2c(O)ccc(O)c2c1O` [Dodecanoic acid (R)-1-(5,8-dihydroxy-1,4-dioxo-1,4-dihydro-naphthalen-2-yl)-4-methyl-pent-3-enyl ester], the half-inhibitory concentration (IC50) is above 625 µM.

As for `CCCCCCCCCCCCCCCC(=O)OC(=CC=C(C)C)c1cc(O)c2c(O)ccc(O)c2c1O` [Hexadecanoic acid (R)-1-(5,8-dihydroxy-1,4-dioxo-1,4-dihydro-naphthalen-2-yl)-4-methyl-pent-3-enyl ester], the IC50 is above 625 µM.

In turn, `CCCCCCCCC(=O)OC(=CC=C(C)C)c1cc(O)c2c(O)ccc(O)c2c1O` [Nonanoic acid (R)-1-(5,8-dihydroxy-1,4-dioxo-1,4-dihydro-naphthalen-2-yl)-4-methyl-pent-3-enyl ester] showed an IC50 above 625 µM.

As for `CCCCCCCCCCCCCCCCCC(=O)OC(=CC=C(C)C)c1cc(O)c2c(O)ccc(O)c2c1O` [Octadecanoic acid (R)-1-(5,8-dihydroxy-1,4-dioxo-1,4-dihydro-naphthalen-2-yl)-4-methyl-pent-3-enyl ester], the IC50 was above 625 µM.

In the case of `CCCCCCCC(=O)OC(=CC=C(C)C)c1cc(O)c2c(O)ccc(O)c2c1O` [Octanoic acid (R)-1-(5,8-dihydroxy-1,4-dioxo-1,4-dihydro-naphthalen-2-yl)-4-methyl-pent-3-enyl ester], the IC50 is above 625 µM.

Usually IC50 stands for the concentration needed to halve the response being measured.
